Source: the NIST ThermoML archive (doi:10.1016/j.jct.2004.07.027)
Numbers after ± are expanded uncertainties.

Experiment: mn = molality of the nth substance listed, in mol/kg
Conditions: 350 kPa, Liquid, Extra sensitive DSC

C1COCCOCCOCCOCCOCCO1 [1,4,7,10,13,16-hexaoxacyclooctadecane] + O
apparent molar heat capacity [J/K/mol]
Conditions	368.15 K	373.15 K	378.15 K	383.15 K	388.15 K	393.15 K
m1 = 0.01001	958.6 ± 8.2	959.1 ± 8.1	960.1 ± 8	960.3 ± 7.9	958.8 ± 8.2	958.8 ± 9.7
m1 = 0.02001	953.5 ± 4.1	955.6 ± 4.1	955.9 ± 4.1	956.3 ± 4.2	955.7 ± 4.2	954.7 ± 4.2
m1 = 0.03002	954.4 ± 2.7	955.9 ± 2.7	957.7 ± 2.8	959.2 ± 2.8	959.9 ± 2.8	967.1 ± 2.8
m1 = 0.0401	959.7 ± 2.1	960.6 ± 2	960.8 ± 2	959.6 ± 2	956.7 ± 2.1	951.9 ± 2.4
m1 = 0.04995	960.2 ± 1.6	961.7 ± 1.6	962.6 ± 1.6	962.7 ± 1.7	962.3 ± 1.8	961.7 ± 2.2
m1 = 0.06015	959.9 ± 1.4	961.5 ± 1.4	962.6 ± 1.4	962.5 ± 1.4	961.8 ± 1.5	961.2 ± 1.8
m1 = 0.08002	959.2 ± 1.1	960.8 ± 1	961.5 ± 1	961.5 ± 1	960.8 ± 1.1	960.2 ± 1.3
m1 = 0.1224	958.26 ± 0.7	959.82 ± 0.7	960.5 ± 0.69	960.35 ± 0.68	959.65 ± 0.7	958.56 ± 0.75
m1 = 0.1472	958.12 ± 0.65	959.52 ± 0.66	960.13 ± 0.68	959.95 ± 0.66	959.06 ± 0.7	957.61 ± 0.83
m1 = 0.1935	957 ± 0.5	958.21 ± 0.49	958.64 ± 0.5	958.25 ± 0.5	957.22 ± 0.52	955.72 ± 0.55
m1 = 0.2925	954.88 ± 0.34	955.86 ± 0.33	956.01 ± 0.34	955.31 ± 0.34	954.17 ± 0.35	952.32 ± 0.38
